Assay in all cases: MIC assay, broth microdilution in CAMHB
Holding throughout (format): cell-based

The test system of assay [1] is S. aureus ASAU1028 (CA-MRSA, USA400). The conditions noted are these: 2% NaCl, 16-20 h at 35° C.; for MIC: Staphylococcus aureus, read-out: MIC ASAU 1028. On the procedure:
(§1) The in vitro MIC for bacterial isolates may be obtained in the following manner: a test compound is incorporated into a series of two-fold dilutions in cation adjusted Mueller-Hinton broth (CAMHB). Different bacterial strains diluted to provide a uniform inoculum are added to the CAMHB containing test compounds. A well without test compound is included for each strain as a growth control. […] The procedures used in these experiments are generally those standardized by the Clinical and Laboratory Standards Institute (CLSI), as set forth in the CLSI publication entitled “M7-A7. Methods for dilution antimicrobial susceptibility tests for bacteria that grow aerobically; approved standard-seventh edition.” (2006), which is incorporated by reference as if fully set forth herein. The following exemplifies such a procedure although it is to be understood that modifications of the procedure may be implemented as required.
(§2) Two-fold dilutions of the test compounds are prepared in CAMHB at 2× the concentration range to be tested if the compounds are soluble in aqueous solution. Alternately, dimethylsulfoxide (DMSO) is used to prepare two-fold dilutions at 10× the concentration range to be tested. Reference drugs such as cefotaxime, vancomycin or imipenem are used as positive controls. A few isolated colonies are retrieved from a pure culture prepared on an agar plate and suspended in PBS until the turbidity of the suspension matches a 0.5 McFarland standard which is equal to approximately 10^8 CFU/mL. This solution is further diluted in CAMHB to 10^6 CFU/mL if compounds are diluted in CAMHB and 5×10^5 CFU/mL if compounds are diluted in DMSO. The CAMHB plates containing the compound dilutions are combined in equal volumes with the higher density inoculum, or 10 μL of the DMSO dilutions are added to the lower density inoculum. When S. aureus is the organism being tested and the compound is oxacillin, a beta-lactam or a carbacephem compound of the present invention, 2% NaCl is added to the growth media. The plates are then incubated for 16-20 h at 35° C. The plates are then observed to determine which concentration of the test compound is the MIC.

For assay [2], the system named is S. aureus ASAU1043 (MRSA, CIP, ERY, CLI, GEN resistant). The conditions noted are these: 2% NaCl, 16-20 h at 35° C.; for MIC: Staphylococcus aureus, read-out: MIC ASAU 1043. The procedure:
as §1, §2

Assay [3] concerns S. aureus ASAU002 (MRSA ATCC 33591). Conditions: 2% NaCl, 16-20 h at 35° C.; for MIC: Staphylococcus aureus, read-out: MIC ASAU 002. The procedure: as §1, §2
Assay [4] concerns S. aureus ASAU1033 (MRSA, CIP, ERY, CLIN, TET, GEN resistant). The conditions noted are these: 2% NaCl, 16-20 h at 35° C.; for MIC: Staphylococcus aureus, read-out: MIC ASAU 1033. The procedure:
as §1, §2

The test system of assay [5] is S. aureus ASAU1029 (CA-MRSA, USA300). Conditions: 2% NaCl, 16-20 h at 35° C.; for MIC: Staphylococcus aureus, read-out: MIC ASAU 1029. The procedure: as §1, §2
Assay [6] relates to S. aureus ASAU001 (Susceptible Organism ATCC 29213). The conditions noted are these: 16-20 h at 35° C.; for MIC: Staphylococcus aureus, ATCC29213, 2% NaCl, read-out: MIC ASAU 001. The procedure:
as §1, §2

The values below come from patent US20110224186A1, “CARBACEPHEM BETA-LACTAM ANTIBIOTICS” (Achaogen, Inc., priority 2008, published 2011).

Each structure is given as a SMILES string. Values after ≈ are worked out from the molar mass of the structure shown.

`Nc1nc(/C(=N\O)C(=O)NC2C(=O)N3C(C(=O)O)=C(/C=C4\CCN(C5CCNC5)C4=O)CS[C@H]23)ns1` (stereo partly drawn) [Comparative Compound 1, reference compound]: the MIC (commonly the lowest concentration found to suppress growth) in assay [1] is at most 1 µg/mL; in assay [2], 1 to 8 µg/mL (≈ 1.87 to 15 µM); in assay [3], 1 to 8 µg/mL (≈ 1.87 to 15 µM); in assay [4] it was 1 to 8 µg/mL (≈ 1.87 to 15 µM); in assay [5], at most 1 µg/mL; in assay [6], at most 1 µg/mL.
As for `Nc1nnc(SC2=C(C(=O)O)N3C(=O)[C@@H](NC(=O)/C(=N\O)c4nc(N)sc4Cl)[C@H]3CC2)s1` [Comparative Compound 2, reference compound], the MIC in assay [1] is 1 to 8 µg/mL (≈ 1.93 to 15.5 µM); in assay [2], 1 to 8 µg/mL (≈ 1.93 to 15.5 µM); in assay [3], at most 1 µg/mL; in assay [4] it was 1 to 8 µg/mL (≈ 1.93 to 15.5 µM); in assay [5], 1 to 8 µg/mL (≈ 1.93 to 15.5 µM); in assay [6], at most 1 µg/mL.
On to `Nc1nc(/C(=N/O)C(=O)N[C@@H]2C(=O)N3C(C(=O)O)=C(SCc4ccncc4)CC[C@H]23)c(Cl)s1` [Example 17, (6R,7S,Z)-7-(2-(2-amino-5-chlorothiazol-4-yl)-2-(hydroxyimino)acetamido)-8-oxo-3-(pyridin-4-ylmethylthio)-1-aza-bicyclo[4.2.0]oct-2-ene-2-carboxylic acid], for which the MIC was 1 to 8 µg/mL (≈ 1.96 to 15.7 µM) in assay [1]; above 8 µg/mL in assay [2]; above 8 µg/mL in assay [3]; above 8 µg/mL in assay [4]; 1 to 8 µg/mL (≈ 1.96 to 15.7 µM) in assay [5]; at most 1 µg/mL in assay [6].
On to `Nc1nc(/C(=N/O)C(=O)N[C@@H]2C(=O)N3C(C(=O)O)=C(SCc4ccccc4)CC[C@H]23)c(Cl)s1` [Example 18, (6R,7S,Z)-7-(2-(2-amino-5-chlorothiazol-4-yl)-2-(hydroxyimino)acetamido)-3-(benzylthio)-8-oxo-1-aza-bicyclo[4.2.0]oct-2-ene-2-carboxylic acid], for which the MIC is at most 1 µg/mL in assay [1]; 1 to 8 µg/mL (≈ 1.97 to 15.7 µM) in assay [2]; at most 1 µg/mL in assay [3]; 1 to 8 µg/mL (≈ 1.97 to 15.7 µM) in assay [4]; at most 1 µg/mL in assay [5]; at most 1 µg/mL in assay [6].
For the molecule `Nc1nc(/C(=N/O)C(=O)N[C@@H]2C(=O)N3C(C(=O)O)=C(SCSc4nncs4)CC[C@H]23)c(Cl)s1` [Example 23, (6R,7S,Z)-3-((1,3,4-thiadiazol-2-ylthio)methylthio)-7-(2-(2-amino-5-chlorothiazol-4-yl)-2-(hydroxyimino)acetamido)-8-oxo-1-aza-bicyclo[4.2.0]oct-2-ene-2-carboxylic acid], the MIC in assay [1] was 1 to 8 µg/mL (≈ 1.82 to 14.6 µM); in assay [2], above 8 µg/mL; in assay [3], 1 to 8 µg/mL (≈ 1.82 to 14.6 µM); in assay [4], above 8 µg/mL; in assay [5], 1 to 8 µg/mL (≈ 1.82 to 14.6 µM); in assay [6] it was at most 1 µg/mL.
On to `CNc1nnc(SCSC2=C(C(=O)O)N3C(=O)[C@@H](NC(=O)/C(=N\O)c4nc(N)sc4Cl)[C@H]3CC2)s1` [Example 25, (6R,7S,Z)-7-(2-(2-amino-5-chlorothiazol-4-yl)-2-(hydroxyimino)acetamido)-3-((5-(methylamino)-1,3,4-thiadiazol-2-ylthio)methylthio)-8-oxo-1-aza-bicyclo[4.2.0]oct-2-ene-2-carboxylic acid], for which the MIC in assay [1] is 1 to 8 µg/mL (≈ 1.73 to 13.9 µM); in assay [2] it was above 8 µg/mL; in assay [3] it was 1 to 8 µg/mL (≈ 1.73 to 13.9 µM); in assay [4] it was above 8 µg/mL; in assay [5], 1 to 8 µg/mL (≈ 1.73 to 13.9 µM); in assay [6], at most 1 µg/mL.
Take `Nc1nc(/C(=N/O)C(=O)N[C@@H]2C(=O)N3C(C(=O)O)=C(SCc4cn[nH]c4)CC[C@H]23)c(Cl)s1` [Example 27, (6R,7S,Z)-3-((1H-pyrazol-4-yl)methylthio)-7-(2-(2-amino-5-chlorothiazol-4-yl)-2-(hydroxyimino)acetamido)-8-oxo-1-aza-bicyclo[4.2.0]oct-2-ene-2-carboxylic acid]: the MIC in assay [1] is 1 to 8 µg/mL (≈ 2.01 to 16.1 µM); in assay [2], above 8 µg/mL; in assay [3], 1 to 8 µg/mL (≈ 2.01 to 16.1 µM); in assay [4] it was above 8 µg/mL; in assay [5] it was 1 to 8 µg/mL (≈ 2.01 to 16.1 µM); in assay [6], at most 1 µg/mL.
On to `Cc1ncsc1/C=C\C1=C(C(=O)O)N2C(=O)[C@@H](NC(=O)/C(=N\O)c3nc(N)sc3Cl)[C@H]2CC1` [Example 29, (6R,7S)-7-((Z)-2-(2-amino-5-chlorothiazol-4-yl)-2-(hydroxyimino)acetamido)-3-((Z)-2-(4-methylthiazol-5-yl)vinyl)-8-oxo-1-aza-bicyclo[4.2.0]oct-2-ene-2-carboxylic acid], for which the MIC is at most 1 µg/mL in assay [1]; 1 to 8 µg/mL (≈ 1.96 to 15.7 µM) in assay [2]; 1 to 8 µg/mL (≈ 1.96 to 15.7 µM) in assay [3]; 1 to 8 µg/mL (≈ 1.96 to 15.7 µM) in assay [4]; at most 1 µg/mL in assay [5]; at most 1 µg/mL in assay [6].
For the molecule `Cc1ncsc1/C=C\C1=C(C(=O)O)N2C(=O)[C@@H](NC(=O)/C(=N\O)c3nc(N)sc3Cl)[C@H]2CC1` [Example 31, (6R,7S)-7-((Z)-2-(2-amino-5-chlorothiazol-4-yl)-2-(hydroxyimino)acetamido)-3-((Z)-2-(4-methylthiazol-5-yl)vinyl)-8-oxo-1-aza-bicyclo[4.2.0]oct-2-ene-2-carboxylic acid], the “MIC ASAU 1028” value in assay [1] is “B (MIC's of greater than 1.0 μg/mL to 8.0 μg/mL = B)”. For the same molecule, the “MIC ASAU 1043” value in assay [2] is “B (MIC's of greater than 1.0 μg/mL to 8.0 μg/mL = B)”. In addition, in assay [3], the “MIC ASAU 002” value is reported as “B (MIC's of greater than 1.0 μg/mL to 8.0 μg/mL = B)”. Besides, in assay [4], the “MIC ASAU 1033” value is “B (MIC's of greater than 1.0 μg/mL to 8.0 μg/mL = B)”. Further, the “MIC ASAU 1029” value in assay [5] was “B (MIC's of greater than 1.0 μg/mL to 8.0 μg/mL = B)”. For the same molecule, the “MIC ASAU 001” value in assay [6] (2% NaCl) is “A (MIC's of 1.0 μg/mL or less = A)”.
As for `Nc1nc(/C(=N/O)C(=O)N[C@@H]2C(=O)N3C(C(=O)O)=C(/C=C4\CCN([C@@H]5CCNC5)C4=O)CC[C@H]23)c(Cl)s1` [Example 34, (6R,7S)-7-((Z)-2-(2-amino-5-chlorothiazol-4-yl)-2-(hydroxyimino)acetamido)-8-oxo-3-((E)-((R)-2-oxo-1,3′-bipyrrolidin-3-ylidene)methyl)-1-aza-bicyclo[4.2.0]oct-2-ene-2-carboxylic acid], the MIC is 1 to 8 µg/mL (≈ 1.82 to 14.5 µM) in assay [1]; 1 to 8 µg/mL (≈ 1.82 to 14.5 µM) in assay [2]; 1 to 8 µg/mL (≈ 1.82 to 14.5 µM) in assay [3]; 1 to 8 µg/mL (≈ 1.82 to 14.5 µM) in assay [4]; at most 1 µg/mL in assay [5]; at most 1 µg/mL in assay [6].
